Series [1] relates to 3T3-L1 preadipocytes. Kind of series: Preadipocyte cytotoxicity (cell counting kit-8). As to conditions: treated for 4 hours. The protocol: 3T3-L1 preadipocytes were inoculated into a 96 well plate at 5×10^3 per well, grown in medium (high glucose DMEM, 10% bovine calf serum, 1% penicillin/streptomycin) for 16 hours. The drug was prepared to contain 0.04% and 0.08%, respectively, and then treated for 4 hours. After adding 10 μl of Dojingo CK04-11 cell counting kit-8 to each well according to the manual, reacting for 2 hours, the absorbance at 450 nm was measured with a spectrophotometer to compare preadipocyte cytotoxicity.
(In general: Tetrazolium assays rely on reduction of a dye to a coloured formazan, in cell work by metabolically active cells.)

On the set-up of series [2]: species or system SD rats. To be noted: rat, in vivo. The source says:
The interscapular region (back of the neck near the ear) of 10-week-old SD rats (280-350 g) with sufficient subcutaneous adipose tissue was shaved and anesthetized.

The test system of series [3] is skin, subcutaneous tissue of the interscapular region. The series can be described thus: SD rat histological analysis (H&E, Masson's trichome staining). The format is in vivo, SD rats. To be noted: subcutaneous injection, 500 μL of 1%. An excerpt: The interscapular region (back of the neck near the ear) of 10-week-old SD rats (280-350 g) with sufficient subcutaneous adipose tissue was shaved and anesthetized. […].
Then, tissues (skin, subcutaneous tissue) of the interscapular region were collected, fixed, and subjected to H&E staining and Masson's trichome staining. Tissue changes were investigated through microscopic observation.

Read-outs that look alike come from different tables or passages of the source.

“Sodium deoxycholate [precursor of deoxycholic acid salt]”: in series [1] (0.04%), the “preadipocyte cytotoxicity (comparison between test materials)” value is recorded as “the same”. For the same molecule, the “survival rate of preadipocytes” value in series [1] (0.08%) was determined as 24.6%.

On to `C[C@H](CCC(=O)O)[C@H]1CC[C@H]2[C@@H]3CC[C@@H]4C[C@H](O)CC[C@]4(C)[C@H]3C[C@H](O)[C@]12C` [deoxycholic acid], for which, in series [2], the “amount of DCA in the subcutaneous tissue” value is “increased over time”. Further, the “amount of DCA in the subcutaneous tissue” value in series [2] (sc) is on record as “gradually decreased”. In series [3], the “tissue damage (H&E staining)” value is listed as “severe tissue damage”; the “tissue findings at section creation (Masson's trichome staining)” value was “hematoma and edema”.

These data come from patent US20240315947A1, “COSMETIC COMPOSITION COMPRISING MOLECULAR AGGREGATES OF BILE ACIDS OR BILE ACID SALTS” (SCAI THERAPEUTICS CO., LTD., priority 2021, published 2024).
